In the assay the test system is HCT116. The following applies: 72 h. The procedure, abridged:
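In 1536-well plates, 250 HCT116 cells per well were seeded and left for 5 h to attach. Luminescence from CellTiter-Glo was set against vehicle (0%) and positive control (-100%), and pattern correction was applied. IC50 and maximal efficacy come from four-parameter Hill fitting.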

The structures appear in SMILES notation. Counter-ions that a name gives are not always drawn.

As to `NNC(=O)c1ccncc1` [Isoniazid], the IC50 cell viability is, setting by setting: (ICRF193 0 nM) > 45.8 µM; (ICRF193 200 nM) > 45.8 µM.

On to `CC(C)NCC(O)c1ccc(O)c(O)c1` (centres undefined) [Isoprenaline hydrochloride], for which the IC50 cell viability by setting is: (ICRF193 0 nM) > 45.8 µM; (ICRF193 200 nM) > 45.8 µM.

`CC(C)[N+](C)(CCC(C(N)=O)(c1ccccc1)c1ccccc1)C(C)C` [Isopropamide]: the IC50 cell viability reads like this: (ICRF193 0 nM) > 45.8 µM; (ICRF193 200 nM) > 45.8 µM.

Turning to `CCCCCCCCCCCCCC(=O)OC(C)C` [Isopropyl tetradecanoic acid], the IC50 cell viability (ICRF193 0 nM) is > 45.8 µM and the IC50 cell viability (ICRF193 200 nM) is > 45.8 µM.

Consider `O=[N+]([O-])O[C@H]1CO[C@H]2[C@@H]1OC[C@H]2O[N+](=O)[O-]` [Isosorbide dinitrate], for which the IC50 cell viability (ICRF193 0 nM) was > 45.8 µM and the IC50 cell viability (ICRF193 200 nM) was > 45.8 µM.

For `O=[N+]([O-])O[C@@H]1CO[C@H]2[C@@H]1OC[C@@H]2O` [Isosorbide mononitrate], the IC50 cell viability reads like this: (ICRF193 0 nM) > 45.8 µM; (ICRF193 200 nM) > 45.8 µM.

`O[C@@H]1CO[C@H]2[C@@H]1OC[C@@H]2O` [Isosorbide]: the IC50 cell viability is > 45.8 µM (ICRF193 0 nM) and > 45.8 µM (ICRF193 200 nM).

Take `CC(CN1c2ccccc2Sc2cccnc21)N(C)C` (centres undefined) [Isothipendyl hydrochloride]: the IC50 cell viability by setting is: (ICRF193 0 nM) > 45.8 µM; (ICRF193 200 nM) > 45.8 µM.

With `CC1=C(/C=C/C(C)=C/C=C/C(C)=C\C(=O)O)C(C)(C)CCC1` [Isotretinoin], the IC50 cell viability runs as follows: (ICRF193 0 nM) > 45.8 µM; (ICRF193 200 nM) > 45.8 µM.

For `CC(COc1ccccc1)NC(C)C(O)c1ccc(O)cc1` (centres undefined) [Isoxsuprine hydrochloride], the IC50 cell viability is, setting by setting: (ICRF193 0 nM) > 45.8 µM; (ICRF193 200 nM) > 45.8 µM.

In the case of `COC(=O)C1=C(C)NC(C)=C(C(=O)OC(C)C)C1c1cccc2nonc12` (centres undefined) [Isradipine], the IC50 cell viability is, setting by setting: (ICRF193 0 nM) > 45.8 µM; (ICRF193 200 nM) > 45.8 µM.

With `CCn1c(=O)c2c(nc(/C=C/c3ccc(OC)c(OC)c3)n2C)n(CC)c1=O` [Istradefylline], the IC50 cell viability is > 45.8 µM (ICRF193 0 nM) and > 45.8 µM (ICRF193 200 nM).

For `CN1[C@@H]2CC[C@H]1C[C@@H](NC(=O)n1c(=O)[nH]c3ccccc31)C2` [Itasetron], the IC50 cell viability reads like this: (ICRF193 0 nM) > 45.8 µM; (ICRF193 200 nM) > 45.8 µM.

Regarding `COc1ccc(C(=O)NCc2ccc(OCCN(C)C)cc2)cc1OC` [Itopride hydrochloride], the IC50 cell viability runs as follows: (ICRF193 0 nM) > 45.8 µM; (ICRF193 200 nM) > 45.8 µM.

As to `CCC(C)n1ncn(-c2ccc(N3CCN(c4ccc(OCC5COC(Cn6cncn6)(c6ccc(Cl)cc6Cl)O5)cc4)CC3)cc2)c1=O` (centres undefined) [Itraconazole], the IC50 cell viability by setting is: (ICRF193 0 nM) > 45.8 µM; (ICRF193 200 nM) > 45.8 µM.

With `COc1cc2c(cc1OC)CC(=O)N(CCCN(C)C[C@H]1Cc3cc(OC)c(OC)cc31)CC2` [Ivabradine hydrochloride], the IC50 cell viability runs as follows: (ICRF193 0 nM) > 45.8 µM; (ICRF193 200 nM) > 45.8 µM.

As to `Cc1oc(-c2ccccc2)nc1CCOc1ccc(CC2C(=O)NOC2=O)cc1` (centres undefined) [JTT-501], the IC50 cell viability reads like this: (ICRF193 0 nM) > 45.8 µM; (ICRF193 200 nM) > 45.8 µM.

In the case of `C=C(C)[C@H]1CN[C@H](C(=O)O)[C@H]1CC(=O)O` [Kainic acid], the IC50 cell viability was > 45.8 µM (ICRF193 0 nM) and > 45.8 µM (ICRF193 200 nM).

As to `NC[C@H]1O[C@H](O[C@H]2[C@H](O)[C@@H](O[C@H]3O[C@H](CO)[C@@H](O)[C@H](N)[C@H]3O)[C@H](N)C[C@@H]2N)[C@H](O)[C@@H](O)[C@@H]1O` [Kanamycin (sulfate)], the IC50 cell viability (ICRF193 0 nM) is > 45.8 µM and the IC50 cell viability (ICRF193 200 nM) is > 45.8 µM.

Turning to `CC(=O)CCC1C(=O)N(c2ccccc2)N(c2ccccc2)C1=O` [Kebuzone], the IC50 cell viability is, setting by setting: (ICRF193 0 nM) > 45.8 µM; (ICRF193 200 nM) > 45.8 µM.

Consider `O=C(c1ccc(F)cc1)C1CCN(CCn2c(=O)[nH]c3ccccc3c2=O)CC1` [Ketanserin], for which the IC50 cell viability was > 45.8 µM (ICRF193 0 nM) and > 45.8 µM (ICRF193 200 nM).

As for `O=C(c1ccccc1)c1ccc2n1CCC2C(=O)O` (centres undefined) [Ketorolac], the IC50 cell viability is, setting by setting: (ICRF193 0 nM) > 45.8 µM; (ICRF193 200 nM) > 45.8 µM.

For the molecule `CN1CCC(=C2c3ccccc3CC(=O)c3sccc32)CC1` [Ketotifen], the IC50 cell viability is, setting by setting: (ICRF193 0 nM) > 45.8 µM; (ICRF193 200 nM) > 45.8 µM.

As for `O=c1cc(CO)occ1O` [Kojic acid], the IC50 cell viability was > 45.8 µM (ICRF193 0 nM) and > 45.8 µM (ICRF193 200 nM).

`Cl.NCCCC[C@H](N)C(=O)O` [L-(+)-Lysine monohydrochloride]: the IC50 cell viability reads like this: (ICRF193 0 nM) > 45.8 µM; (ICRF193 200 nM) > 45.8 µM.

For the molecule `N=C(N)NCCC[C@H](N)C(=O)O` [L-Arginine], the IC50 cell viability (ICRF193 0 nM) is > 45.8 µM and the IC50 cell viability (ICRF193 200 nM) was > 45.8 µM.

For `O=C1O[C@H]([C@@H](O)CO)C(O)=C1O` [L-Ascorbic acid], the IC50 cell viability reads like this: (ICRF193 0 nM) > 45.8 µM; (ICRF193 200 nM) > 45.8 µM.
